Results reported in patent US20200390762A1, “METHOD OF TREATING HAND-FOOT SYNDROME AND SYMPTOMS ASSOCIATED THEREWITH” (GALDERMA S.A., priority 2014, published 2020).
Where a name gives a salt, the structure may show the parent alone.

Test system: murine UVB-induced epidermal hyperplasia model
Assay: Murine UVB-induced epidermal hyperplasia model: epidermis thickness (H&E histology)
Format: in vivo, SKH1 mice
Details: UVB 120 mJ/cm^2
Procedure: The back skin of the SKH1 mice was exposed to 120 mJ/cm^2 UVB using the Biospectra system equipped with UVB sunlamps with a maximum emission peak at 312 nm. Irradiations were performed under isoflurane gaseous anesthesia. Vehicle (PEG400/EtOH/PHY (30/20/50) p/p) or brimonidine at 0.2% or 2% was administered by topical route (100 μl) on a 10 cm^2-area on the back using a micropipette. The area is located on the upper part of the back to prevent the animals from licking themselves. […]
One hour after the third topical treatment and one hour before euthanasia, mice received an i.p. injection of 5-ethynyl-2′-deoxyuridine (EdU) at 100 mg/kg. […] For epidermal thickness, two sections per animal (7 μm) were stained in H&E. Skin histology and the epidermis thickness were analyzed using image analysis (mScope 3.9, Aurora mScope) on scanned slide pictures (NanoZoomer C9600-12, Hamamatsu Photonics K.K). […] Nuclei were also stained with DAPI (5 mg/ml) diluted in Vectashield Hard Set Mounting medium for fluorescence ref: 1-1400 Vector Laboratories). The number of keratinocyte stained with Alexa Fluor® 594 was counted from digital images (NanoZoomer C9600-12, Hamamatsu Photonics K.K) and the epidermis length of each section determined using an in-house dedicated tool. […]

For `Brc1c(NC2=NCCN2)ccc2nccnc12` [brimonidine tartrate, (5-Bromo-quinoxalin-6-yl)-(4,5-dihydro-1H-imidazol-2-yl)-amine (Brimonidine)], the “inhibition of acanthosis (epidermis thickness)” value (0.2% topical, pre-treatment) was “no effect” and the “inhibition of acanthosis (epidermis thickness)” value (2% topical, pre-treatment (1 h before UV irradiation, then twice more at 23 hours apart)) was −23%.
